Source: PubChem BioAssay (NCI)
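Assay format: 96-well plates, 48-hour exposure. At the TGI there is no net growth.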

Columns and labels:
Test in all cases: NCI tumour cell line growth inhibition, 48 h
[1] = test system: U251 CNS
[2] = test system: SF-295 CNS
[3] = test system: SK-MEL-2 melanoma
[4] = test system: MALME-3M melanoma
[5] = test system: KM12 colon
[6] = test system: HOP-62 NSCLC
[7] = test system: HOP-92 NSCLC
[8] = test system: M14 melanoma
[9] = test system: NCI-H23 lung
[10] = test system: HCC-2998 colon
[11] = test system: UACC-257 melanoma
[12] = test system: A549 NSCLC
[13] = test system: SR leukemia
[14] = test system: RPMI-8226 leukemia
[15] = test system: HCT-15 colon
[16] = test system: SK-MEL-28 melanoma
[17] = test system: DU-145 prostate
[18] = test system: NCI-H226 lung
[19] = test system: MDA-MB-435
[20] = test system: MOLT-4 leukemia
[21] = test system: A498 renal
[22] = test system: PC-3 prostate
[23] = test system: NCI-H460 lung
[24] = test system: CCRF-CEM leukemia
[25] = test system: BT-549 breast
[26] = test system: SF-268 CNS
[27] = test system: HT29 colon
[28] = test system: CAKI-1 renal
[29] = test system: SK-OV-3 ovarian
[30] = test system: MDA-MB-231 breast
[31] = test system: SW-620 colon
[32] = test system: NCI-H522 lung
[33] = test system: OVCAR-4 ovarian
[34] = test system: MCF7 breast
[35] = test system: HCT-116 colon
[36] = test system: RXF 393 renal
[37] = test system: OVCAR-5 ovarian
[38] = test system: NCI/ADR-RES ovarian
[39] = test system: UO-31 renal
[40] = test system: OVCAR-3 ovarian
[41] = test system: EKVX NSCLC
[42] = test system: T-47D breast
[43] = test system: 786-0 renal
[44] = test system: ACHN renal
[45] = test system: OVCAR-8 ovarian
[46] = test system: COLO 205 colon
[47] = test system: SN12C renal
[48] = test system: MDA-N
[49] = test system: SNB-75 CNS
[50] = test system: UACC-62 melanoma
[51] = test system: HL-60(TB) leukemia
[52] = test system: SNB-19 CNS
[53] = test system: K-562 leukemia
[54] = test system: SF-539 CNS
[55] = test system: SK-MEL-5 melanoma
[56] = test system: IGROV1 ovarian
[57] = test system: TK-10 renal

Measured: TGI

Cc1cc2c(O)c(c1)COCc1cc(C)cc(c1O)COCc1cc(C)cc(c1O)COC2
not listed: [55] | [56] | [57]
> 100 µM: all other assays above

Cc1cc2c(s1)C(N)CC2=O (stereo not given)
not listed: [2] | [7] | [9] | [18] | [32] | [33]
> 100 µM: all other assays above
